# Test results published in patent publication US20080194585A1, “Fungicidal Pyrazine Derivatives” (priority 2005, published 2008).
# Marks after values point to notes of the source that are not given here.
# Key:
# [1] = system: Phytophthora infestans; experiment: whole plant or invertebrate; type: in vivo
# [2] = system: Puccinia recondita f. sp. tritici; experiment: Test K: wheat leaf rust, preventive spray on wheat seedlings; conditions: 40 ppm (*)
# [3] = system: fusarium graminearium; experiment: Test I: wheat head scab, preventive spray on wheat seedlings
# Procedure: (the causal agent of wheat head scab) and incubated in a saturated atmosphere at 20° C. for 72 h, and then moved to a growth chamber at 22° C. for 5 days, after which disease ratings were made.
# [4] = system: Septoria nodorum; experiment: Test H: wheat glum blotch, preventive spray on wheat seedlings; conditions: 40 ppm (*)
# Procedure: (the causal agent of wheat glum blotch) and incubated in a saturated atmosphere at 20° C. for 48 h, and then moved to a growth chamber at 22° C. for 5 days, after which disease ratings were made.
# [5] = system: Colletotrichum orbiculare; experiment: Test B: cucumber Colletotrichum anthracnose, preventive spray on cucumber seedlings
# [6] = system: Rhizoctonia oryzae; experiment: Test G: turf brown patch, preventive spray on creeping bent grass seedlings; conditions: 40 ppm (*)
# Procedure: (the causal agent of turf brown patch) and incubated in a saturated atmosphere at 27° C. for 24 h, and then moved to a growth chamber at 27° C. for 5 days, after which disease ratings were made.
# [7] = system: Septoria tritici; experiment: Test J: wheat leaf blotch, preventive spray on wheat seedlings; type: in vivo; conditions: 40 ppm (*)
# From the text: A dash (-) indicates no test results.
# [8] = system: Plasmopara viticola; experiment: Test D: grape downy mildew, spray after inoculation of grape seedlings; type: in vivo
# From the text: Upon removal, disease ratings were made. […] A dash (-) indicates no test results.
# [9] = system: Botrytis cinerea; experiment: Test E: tomato botrytis, preventive spray on tomato seedlings; conditions: 40 ppm (*)
# [10] = system: Erysiphe graminis f. sp. tritici; experiment: Test L: wheat powdery mildew, preventive spray on wheat seedlings; conditions: 40 ppm (*)
# [11] = system: Pythium aphanidermatum; experiment: Test A: bluegrass pythium blight, preventive spray on bluegrass seedlings
SMILES,Test F disease control rating ([1]; 200 ppm),Test K disease control rating [2],Test I disease control rating ([3]; 200 ppm),Test H disease control rating [4],Test B disease control rating ([5]; 40 ppm (*)),Test G disease control rating [6],Test J disease control rating [7],Test D disease control rating ([8]; 200 ppm),Test E disease control rating [9],Test L disease control rating [10],Test A disease control rating ([11]; 200 ppm),Test F disease control rating ([1]; 40 ppm (*)),Test I disease control rating ([3]; 40 ppm (*)),Test D disease control rating ([8]; 40 ppm (*)),Test A disease control rating ([11]; 40 ppm (*)),Test B disease control rating ([5]; 200 ppm)
CC(C)Cn1c(-c2ccsc2)c(Cl)nc(-n2cccn2)c1=O [compound 154],0%,0* %,0%,0* %,0* %,0* %,45* %,50%,99* %,0* %,0%,–,–,–,–,–
CC(C)Cn1c(-c2ccc(Cl)o2)c(Cl)nc(-n2cncn2)c1=O [compound 156],0%,0* %,0%,0* %,0* %,0* %,14* %,0%,0* %,0* %,0%,–,–,–,–,–
CC(C)Cn1c(-c2ccc(Cl)s2)c(Cl)nc(-n2cncn2)c1=O [compound 157],0%,0* %,49%,0* %,0* %,0* %,47* %,0%,0* %,0* %,0%,–,–,–,–,–
CC(C)Cn1c(-c2ccoc2)c(Cl)nc(-n2cncn2)c1=O [compound 158],0%,0* %,0%,0* %,0* %,0* %,15* %,0%,0* %,0* %,0%,–,–,–,–,–
CC(C)Cn1c(-c2ccsc2)c(Cl)nc(-n2cncn2)c1=O [compound 159],47%,0* %,0%,0* %,0* %,0* %,69* %,0%,0* %,0* %,0%,–,–,–,–,–
N#Cc1nc(Cl)c(-c2c(F)cccc2F)n(-c2ccccc2)c1=O [compound 163],–,0* %,–,0* %,0* %,0* %,3* %,–,0* %,0* %,–,0* %,0* %,0* %,0* %,–
CCC(C)Cn1c(-c2ccc(F)cc2Cl)c(Cl)nc(-n2cncn2)c1=O (stereo not drawn) [compound 165],–,100* %,–,100* %,52* %,16* %,100* %,–,100* %,100* %,–,0* %,0* %,31* %,0* %,–
CCC(C)Cn1c(-c2ccc(F)cc2Cl)c(Cl)nc(-n2cc(Cl)cn2)c1=O (stereo not drawn) [compound 166],–,86* %,–,0* %,17* %,26* %,100* %,–,100* %,0* %,–,0* %,0* %,0* %,0* %,–
CCC(C)Cn1c(-c2ccc(F)cc2Cl)c(Cl)nc(-n2ccc(C(F)(F)F)n2)c1=O (stereo not drawn) [compound 167],–,80* %,–,0* %,0* %,0* %,93* %,–,0* %,0* %,–,0* %,0* %,0* %,0* %,–
CCC(C)Cn1c(-c2ccc(F)cc2Cl)c(Cl)nc(-n2nc(C)cc2C)c1=O (stereo not drawn) [compound 168],–,0* %,–,0* %,0* %,0* %,36* %,–,0* %,0* %,–,0* %,0* %,0* %,0* %,–
CCC(C)Cn1c(-c2ccc(F)cc2Cl)c(Cl)nc(-n2cc(C)cn2)c1=O (stereo not drawn) [compound 169],–,92* %,–,97* %,98* %,0* %,100* %,–,99* %,75* %,–,0* %,0* %,0* %,0* %,–
CC(C)Cn1c(-c2c(F)c(F)c(F)c(F)c2F)c(Cl)nc(-n2cccn2)c1=O [compound 171],–,96* %,–,82* %,–,95* %,52* %,–,100* %,99* %,–,0* %,0* %,0* %,0* %,0%
CC(C)Cn1c(-c2c(F)cccc2F)c(Cl)nc(-c2cccnc2)c1=O [compound 178],–,0* %,–,0* %,0* %,0* %,5* %,–,0* %,0* %,–,0* %,0* %,0* %,0* %,–
CCCC(C)n1c(-c2c(F)cccc2F)c(Cl)nc(-n2cccn2)c1=O (stereo not drawn) [compound 180],–,100* %,–,99* %,66* %,94* %,98* %,–,99* %,95* %,–,0* %,0* %,0* %,0* %,–
CCC(CC)n1c(-c2c(F)cccc2F)c(Cl)nc(-n2cccn2)c1=O [compound 181],–,100* %,–,99* %,51* %,100* %,100* %,–,99* %,98* %,–,0* %,0* %,0* %,0* %,–
CCC(CC)Cn1c(-c2c(F)cccc2F)c(Cl)nc(-n2cccn2)c1=O [compound 183],–,99* %,–,89* %,0* %,81* %,100* %,–,100* %,92* %,–,0* %,0* %,0* %,0* %,–
CCn1c(-c2c(F)cccc2F)c(Cl)nc(-n2cccn2)c1=O [compound 184],–,98* %,–,100* %,0* %,88* %,96* %,–,100* %,98* %,–,0* %,0* %,67* %,0* %,–
C#CCn1c(-c2c(F)cccc2F)c(Cl)nc(-n2cccn2)c1=O [compound 186],–,100* %,–,100* %,16* %,67* %,92* %,–,99* %,90* %,–,0* %,0* %,0* %,0* %,–
